Experimental data: patent publication US10202604B2, “Methods of using microRNA-141” (Stemirna Therapeutics Co., Ltd., priority 2016, dated 2019)

How the values were obtained:
CD44 = CD44 levels in endpoint tumors; format: in vivo; conditions: tumors from miR-141 overexpressing cells vs control tumors
CD44hi PC3 cells = assay: Dorsal prostate implantation, tumor growth and lung metastasis; format: in vivo, NOD/SCID mice; conditions: miR-141 via lentiviral infection; 100,000 cells into dorsal prostate
Procedure: FACS-purified CD44^hi luciferase/GFP double-tagged PC3 cells were infected with Lenti-141 or Lenti-ctl (MOI 10) and 100,000 cells each were injected into the DP of NOD/SCID mice (n=9). Tumor growth and metastasis were monitored using bioluminescence imaging (IVIS). FIGS. 2A-2B show the representative images and quantification (in total photon flux) of primary tumors before termination of the experiment. FIGS. 2C-2D show the representative images (FIG. 2C) and quantification (FIG. 2D) of lung metastasis with the primary tumors covered. […] CD44^+ Du145 cells were infected with Lenti-ctl or Lenti-141 (MOI 10; 72 h) and cells were then injected into the DP of male NOD/SCID mice. Mice were terminated at day 56 and organs including lung were harvested for analyzing metastasis. Shown were representative IHC images of humanspecific Ki-67 staining. […] LAPC9-GFP cells were infected with TRIPZ-NS or TRIPZ-141 inducible lentivirus (MOI 10, 72 h) and CD44^+ cells were purified out by FACS. 100,000 cells each were injected into the DP of NOD/SCID mice and, from day 16 on, two groups of mice were treated with Dox (200 mg/kg body weight in feed). Tumor volumes were measure twice weekly (FIG. 2F). Mice were terminated at day 40 and endpoint tumors were harvested and weighted (FIG. 2G; incidence indicated in bars). […]

PPC-1 cells = assay: In vivo tumor regeneration assay; set-up: species or system NOD/SCID mice; conditions: miR-141 over-expression in bulk cells; 100,000 cells per injection
Procedure: (§1) Average % of CD44^+ cells (as determined by flow analysis; n=3-5) is indicated for each cell type (UD, undetectable). […] Purified CD44^+ Du145 cells were transfected with NC or miR-141 oligos (30 nM, 48 h) and then plated for clonal (1D & 1E) and sphere (1F) assays. Bars represent mean±SD. *, P<0.05; **, P<0.01. […] Shown are tumor images, cell numbers injected (100,000 cells per injection for all models), site of injection (s.c, subcutaneously) and days (d) when tumors were harvested. Tumor weight and incidences with corresponding P values are also indicated. ns, not significant. […] Purified CD44^+ HPCa202 cells were infected with Lenti-ctl or Lenti-141 (MOI 10, 72 h) and plated for clonal assay (1K) or sphere assays in Matrigel (1L & 1M). For 1st generation (1°) sphere assays, 1,000 cells per well were plated in triplicate for each group in 12-well plate and results scored in 11 days. For 2nd generation (2°), the 1° spheres were harvested, digested with Collagenase and Trypsin into single cells, 1,000 cells/well were plated, and results scored in 10 days. Quantification of the colonies was plotted (1 L; **P<0.01).
(§2) Du145, LNCaP, PC3, PPC-1, VCaP cells were obtained from […] and cultured in RPMI-1640 (Life Technologies, Carlsbad, Calif.) plus 7% fetal bovine serum (FBS) with the exception of VCaP, which were cultured in Dulbecco's Modified Eagles Medium (DMEM, Life Technologies) supplemented with 15% fetal bovine serum. Human xenograft prostate tumors, LAPC9 [bone metastasis; positive for androgen receptor (AR) and prostate-specific antigen (PSA)], LAPC4 (lymph node metastasis; AR+ and PSA+), and Du145 ([…]; AR− and PSA−) were maintained in NOD/SCID mice. These cell and xenograft lines, which have been routinely utilized (13, 14, 18, 20, 21, 23, 25, 33) and authenticated by institutional CCSG Cell Line Characterization Core using short tandem repeat (STR) analysis and checked to be free of mycoplasma contamination using the Agilent (Santa Clara, Calif.) MycoSensor QPCR Assay Kit (cat.#302107). NOD/SCID mice were produced mostly from breeding colonies with occasional purchases from the Jackson Laboratories and maintained in standard conditions according to the Institutional Guidelines. All animal experiments were approved by Institutional Animal Care and Use Committee.
(§3) As the CD44^+ prostate cancer cells are prominently devoid of miR-141, its expression in CD44^+ prostate cancer cells was restored and then cancer stem cell assays including stringent clonal (holoclone) and single cell-derived sphere-formation assays (13, 14, 23, 25, 33) were performed. […]

bulk Du145 cells = assay: In vivo tumor regeneration assay; set-up: species or system NOD/SCID mice; conditions: miR-141 over-expression in bulk cells; 100,000 cells per injection
Procedure: as §1, §2, §3

CD44+ LAPC9 cells = assay: In vivo tumor regeneration assay; set-up: species or system NOD/SCID mice; conditions: enforced miR-141 expression; 100,000 cells per injection
Procedure: as §1, §2, §3

CD44+ Du145 cells = assay: In vivo tumor regeneration assay; set-up: species or system NOD/SCID mice; conditions: enforced miR-141 expression; 100,000 cells per injection
Procedure: as §1, §2, §3

miR-141: miR-141 mirVana mimics (Life Technologies); microRNA-141 oligonucleotide may have SEQ ID NO: 1; in some experiments over-expressed by lentiviral vectors (UAACACUGUCUGGUAAAGAUGG; listed as RNA, further chemistry not given here) [miR-141 mirVana mimics (Life Technologies); in some experiments over-expressed by lentiviral vectors]
CD44 mRNA level in endpoint tumors (CD44): lower levels | CD44 protein level in endpoint tumors (CD44): lower levels | lung metastasis (CD44hi PC3 cells): less | primary tumors (size) (CD44hi PC3 cells): smaller | tumor regeneration (PPC-1 cells): suppressed tumor regeneration | tumor regeneration (bulk Du145 cells): suppressed tumor regeneration | tumor growth and/or tumor incidence (CD44+ LAPC9 cells): significantly suppressed tumor growth and/or reduced tumor incidence | tumor growth and/or tumor incidence (CD44+ Du145 cells): significantly suppressed tumor growth and/or reduced tumor incidence
